From paper PMC8448163 (Antimicrobial Agents and Chemotherapy, 2021)
pEC50: −log10 of the molar value. Where “and” joins values, the source holds several entries; their conditions need not be identical. Identical values can stand only once. Like-named read-outs stand apart in the source and are kept apart here.

Key:
[1] = clinical; conditions: human, in vivo
[2] = tested on: healthy adult volunteers; test: Phase 1 MAD study, safety and tolerability
[3] = tested on: poliovirus; conditions: in vitro, in combination with capsid inhibitors including pocapavir; cited from earlier work
[4] = tested on: ECV-11 isolates; test: organism not typed; format: cell-based; conditions: read-out: EC50, range
[5] = tested on: healthy adult volunteers; test: Phase 1 SAD study, safety and tolerability
[6] = in vitro
[7] = clinical; conditions: human, in vivo; remark: listed apart in the source
[8] = in vivo; conditions: dog, po
[9] = healthy adult males (n = 14), single oral doses 200 mg to 2,000 mg; cited from earlier work
[10] = tested on: CV-A16; test: microbe, parasite or virus in culture; format: cell-based; conditions: Enterovirus A, CVA16
[11] = tested on: EV panel comprising 47 PV strains and 36 nonpolio EV strains; test: microbe, parasite or virus in culture; format: cell-based; conditions: Enterovirus, read-out: EC50, mean
[12] = in vivo; conditions: rat, po
[13] = for mean and individual trough concentrations: LLOQ 1.00 ng/ml; for time of peak of mean plasma concentration: MAD BID
[14] = MAD, one participant, 2,000 mg BID cohort, day 7, normal two days later
[15] = SAD, 10-fold increase in dose from 200 mg to 2,000 mg

C#CC[C@@H](C(=O)N[C@H](/C=C/C(=O)OCC)C[C@@H]1CCNC1=O)n1cccc(NC(=O)c2cc(C)on2)c1=O [V-7404]
Tmax [1]: 15 to 30 min | Vd/F ([1]; Vz/F): 3780 L | AUC ([1]; po, 500 mg, AUC (AUC0–tau)): 302 ng·h/mL | Cmax ([1]; po, 500 mg, Cmax): 247 ng/mL | Cmax at 14 days ([1]; po, 500 mg, Cmax): 370 ng/mL | Vd/F at 14 days ([1]; po, 500 mg, Vz/F): 3020 L | Tmax ([1]; po, 500 mg, tmax): 28.8 min | Tmax at 14 days ([1]; po, 500 mg, tmax): 15 min | half-life ([1]; t1/2): 79.2 min | Tmax ([1]; tmax(0–4 h)): 30 min | Tmax ([1]; tmax(4–24 h)): 45 min | deaths or SAEs ([2]; MAD study): No deaths or SAEs were reported | proportion of related TEAEs ([2]; MAD, 1,000 mg QD): 12.5% | proportion of related TEAEs ([2]; MAD, 2,000 mg BID): 75% | participants with increased lipase levels (asymptomatic) leading to discontinuation ([2]; MAD, 2,000 mg BID cohort, 1/41 participants): 2.4% | proportion of related TEAEs ([2]; MAD, 2,000 mg QD): 22.2% | participants with moderate TEAEs ([2]; MAD, V-7404 group, 2/33 participants): 6.1% | participants with mild TEAEs ([2]; MAD, V-7404 group, 10/33 participants): 30.3% | amylase [2, 14]: 2.7 × ULN | lipase [2, 14]: 4.5 × ULN | activity in combination with antiviral capsid inhibitors [3]: synergistic activity | pEC50 [4]: 6.45 to 7.49 | deaths or SAEs ([5]; SAD study): No deaths or SAEs were reported | participants with moderate TEAEs ([5]; SAD, V-7404 group, 1/24 participants): 4.2% | participants with mild treatment-emergent AEs (TEAEs) ([5]; SAD, V-7404 group, 4/24 participants): 16.7% | elevated lipase ([5]; SAD, one participant, 1,000 mg cohort, day 2, asymptomatic, normal 3 days later): 4.0 × the upper limit of normal (U | genotoxicity study results [6]: negative | Tmax [7]: 15 to 37.8 min | AUC(0-inf) ([7]; po, 200 mg, AUC (AUC0–inf)): 77.4 ng·h/mL | Cmax ([7]; po, 200 mg, Cmax): 83.3 ng/mL | Vd/F ([7]; po, 200 mg, Vz/F): 1170 L | half-life ([7]; po, 200 mg, t1/2): 18.9 min | Tmax ([7]; po, 200 mg, tmax): 30 min | half-life ([7]; t1/2, range across cohorts): 19.2 to 140 min | NOAEL [8]: 1500 mg/kg/day | tolerability [9]: well tolerated with no serious adverse events (SAEs) | geometric mean AUC0–inf lower for fed compared to fasted (SAD 500 mg): 50% | geometric mean Cmax lower for fed compared to fasted (SAD 500 mg): 66% | increase of geometric mean AUC0–inf [15]: 14.2 fold | increase of geometric mean Cmax [15]: 7.6 fold | time of peak of mean plasma concentrations (human, in vivo): 0.25 to 0.75 h | Cmax (human, in vivo, po, 500 mg): 366.6 ng/mL | pEC50 [10]: 5.22 | EC50 [11]: 379 nM and 0.198 µg/mL | NOAEL [12]: 1500 mg/kg/day | mean and individual trough concentrations ([13]; MAD 500 mg QD, days 2, 3, 7, 11 and 14): BLQ | mean and individual trough concentrations ([13]; MAD 1,000 mg QD, days 2, 3, 7, 11 and 14): BLQ | accumulation (RAUC and RCmax) ([13]; MAD 2,000 mg BID, day 14): no accumulation | mean trough concentrations ([13]; MAD 2,000 mg BID, days 2, 3, 7, 11 and 14): either BLQ or were less than twice the LLOQ of 1.00 ng/ml | time of peak of mean plasma concentration ([13]; following the first dose of the day): 0.50 h | time of peak of mean plasma concentration ([13]; following the second dose of the day, day 1): 0.75 h | time of peak of mean plasma concentration ([13]; following the second dose of the day, day 14): 0.50 h | RAUC and RCmax, all ratios ([13]; MAD QD, day 14, all dose levels): less than 1.5 | mean trough concentrations ([13]; MAD, 2,000 mg QD): either BLQ or were less than twice the lower limit of quantification (LLOQ) of 1.00 ng/ml | CL/F ([13]; human, in vivo): 1,987 liters/h | CLss/F ([13]; human, in vivo): 2125 L/h | Vz/F ([13]; human, in vivo): 6542 L | t1/2 ([13]; human, in vivo): 136.2 min | CL/F ([13]; human, in vivo, po, 500 mg): 2,076 liters/h | CL/F (CLss/F) ([13]; human, in vivo, po, 500 mg): 1,656 liters/h
